Results as given in patent US6432438B1, “Biodegradable vehicle and filler” (priority 1997, dated 2002).
Counter-ions that a name gives are not always drawn.

How the values were obtained:
[1] = Solubility in water / dissolution buffer; format: physicochemical; details: compared to hydrated naltrexone base; isotonic phosphate buffer
[2] = Drug release from drug-loaded biodegradable vehicles at 37° C. in isotonic phosphate buffer; format: physicochemical; details: compared to hydrated naltrexone base, 25% polymer (i.v. 0.64) with pure PEG 400 or 50/50% PEG 400/TEC, drug 20% w/w
[3] = as above; format: physicochemical; details: for drug release: drug 20% w/w
Method: A polymer (25% w/w of 50/50 lactide-co-glycolide copolymer, inherent viscosity of 0.59) was dissolved in a minimum quantity of acetone. […] The resulting solutions were stirred to yield uniform mixtures. Acetone was evaporated from the mixtures by heating at 60-75° C. with constant stirring. The biodegradable vehicles were kept in a vacuum oven at 60-75° C. overnight to ensure complete removal of acetone. […] Oxytetracycline base (20% w/w) was added to each biodegradable vehicle and mixed thoroughly to ensure uniform distribution of the drug in the formulations. Drug release from the drug-loaded biodegradable vehicles was performed at 37° C. in isotonic phosphate buffer containing sodium sulfite as an antioxidant. […]
A polymer (25% w/w of 50/50 lactide-co-glycolide copolymer, inherent viscosity of 0.59) was dissolved in a minimum quantity of acetone. Either pure polyethylene glycol 400, triethyl citrate (TEC) or acetyl triethyl citrate (ATEC) was added to the polymer solution. The resulting solutions were stirred to yield uniform mixtures. Acetone was evaporated from the mixtures by heating at 60-75° C. with constant stirring. The biodegradable vehicles were kept in a vacuum oven at 60-75° C. overnight to ensure complete removal of acetone. […] Oxytetracycline base (20% w/w) was added to each biodegradable vehicle and mixed thoroughly to ensure uniform distribution of the drug in the formulations. Drug release from the drug-loaded biodegradable vehicles was performed at 37° C. in isotonic phosphate buffer containing sodium sulfite as an antioxidant. Drug release was fastest from formulations prepared with PEG 400, and slowest from those prepared with ATEC.
The resulting solutions were stirred to yield uniform mixtures. Acetone was evaporated from the mixtures by heating at 60-75° C. with constant stirring. The biodegradable vehicles were kept in a vacuum oven at 60-75° C. overnight to ensure complete removal of acetone. […] Oxytetracycline base (20% w/w) was added to each biodegradable vehicle and mixed thoroughly to ensure uniform distribution of the drug in the vehicles. Drug release from the drug-loaded biodegradable vehicles was performed at 37° C. in isotonic phosphate buffer containing sodium sulfite as an antioxidant. Faster drug release was observed from formulations prepared with a 16.67% polymer and 83.3% of plasticizer blends of varying compositions (polymer to plasticizer ratio of 1:5) compared to those prepared from formulations with polymer to plasticizer ratios of […] (i.e. […]). This is because increasing the polymer concentration in the formulations from 16.67% to 33.3% increased the viscosity of the formulations and decreased the drug diffusion from the formulations. […]
The solutions were stirred to yield a uniform mixture. Acetone was evaporated from the mixtures by heating at 60-75° C. with constant stirring. The biodegradable vehicles were kept in a vacuum oven at 60-75° C. overnight to ensure complete removal of acetone. […] Either hydrated naltrexone base (20% w/w) or naltrexone hydrochloride (20% w/w) was added to the biodegradable vehicles and mixed thoroughly to ensure uniform distribution of the drugs in the formulations. Drug release from the drug-loaded biodegradable vehicles was performed at 37° C. in isotonic phosphate buffer. […] This is because the solubility of the naltrexone hydrochloride in the dissolution buffer is much greater than that of the hydrated naltrexone base.
A similar drug release study was performed with formulations containing either 20% oxytetracycline hydrochloride or 20% oxytetracycline base. […] The solutions were stirred to yield a uniform mixture. Acetone was evaporated from the mixtures by heating at 60-75° C. with constant stirring. The biodegradable vehicles were kept in a vacuum oven at 60-75° C. overnight to ensure complete removal of acetone. […]

[4] = hydrochloride salt compared to the base; cited from earlier work

Q: Which “solubility in the dissolution buffer” value [1] does the source give for O=C1CC[C@@]2(O)[C@H]3Cc4ccc(O)c5c4[C@@]2(CCN3CC2CC2)[C@H]1O5 [naltrexone hydrochloride] here?
A: Its value is “much greater”.

Q: What about the drug release [2] of the same molecule?
A: Its drug release is “considerably faster”.

Q: For CN(C)[C@@H]1C(=O)C(C(N)=O)=C(O)[C@@]2(O)C(=O)C3=C(O)c4c(O)cccc4[C@@](C)(O)[C@H]3[C@H](O)[C@@H]12 [oxytetracycline base], which drug release ([3]; blend of 75% PEG 400 and 25% TEC compared to 50/50% PEG 400/TEC at similar polymer to plasticizer ratios) is on record?
A: Its drug release is “considerably faster”.

Q: And the drug release ([3]; formulations prepared from TEC, 25% w/w polymer, compared among PEG 400, TEC, ATEC)?
A: The drug release was “Intermediate”.

Q: And the drug release ([3]; formulations prepared with ATEC, 25% w/w polymer, compared among PEG 400, TEC, ATEC)?
A: The drug release was “slowest”.

Q: And the drug release ([3]; formulations prepared with PEG 400, 25% w/w polymer, compared among PEG 400, TEC, ATEC)?
A: Its drug release is “fastest”.

Q: And the drug release ([3]; on decreasing inherent viscosity of polymer from 0.76 to 0.15, PEG 400)?
A: The drug release was “dramatically increased”.

Q: What about the drug release ([3]; on decreasing polymer in the formulations from 25% to 10% (PEG 400 75% to 90%), 37° C.) of the same molecule?
A: Its drug release is “dramatically increased”.

Q: What about the drug release ([3]; on increasing PEG 400 from 0% PEG 400/100% TEC to 100% PEG 400/0% TEC, 25% w/w polymer, 37° C.) of the same molecule?
A: Its drug release is “faster”.

Q: And the “cumulative amount of drug released” value ([3]; on increasing drug in the formulations from 10 to 30% w/w, 25% w/w 50/50 PLGA (i.v. 0.59) + PEG 400, 37° C., isotonic phosphate buffer with sodium sulfite)?
A: The value was “increased”.

Q: What about the drug release ([3]; polymer to plasticizer ratio 1:5 (16.67% polymer) compared to 1:3, PEG 400/TEC blends) of the same molecule?
A: The drug release was “Faster”.

Q: Which aqueous solubility [4] does the source give for CN(C)[C@@H]1C(O)=C(C(N)=O)C(=O)[C@@]2(O)C(O)=C3C(=O)c4c(O)cccc4[C@@](C)(O)[C@H]3[C@H](O)[C@@H]12 [oxytetracycline hydrochloride] here?
A: Its aqueous solubility is “greater”.
